Tests used:
[1] = test system: Chick Chorioallantoic Membrane (CAM) vasculature; test: Chick chorioallantoic membrane (CAM) angiogenesis assay; conditions: for INHIBITION/N: 48 hours exposure; for effect on angiogenesis: 48 hours after application to the CAM
[2] = cited from earlier work
[3] = within 48 hours, depending on concentration

| Compound | INHIBITION/N ([1]; 1 μg in methylcellulose (10 μl) disk on CAM) | INHIBITION/N ([1]; 5 μg in methylcellulose (10 μl) disk on CAM) | INHIBITION/N ([1]; 10 μg in methylcellulose (10 μl) disk on CAM) | effect on angiogenesis [1] | maximal avascular zone diameter [1, 3] [mm] | maximal avascular zone on the avascular gradient scale [1, 3] | solubility in water [2] |
| --- | --- | --- | --- | --- | --- | --- | --- |
| O=C1c2c(O)ccc(O)c2C(=O)c2c(NCCNCCO)ccc(NCCNCCO)c21 [mitoxantrone] | 18/24 | 21/24 | 18/22 | angiogenesis was inhibited | 6 | 3 | insoluble in water |
| CC(=O)O[C@H]1C(=O)[C@@]2(C)[C@H]([C@H](OC(=O)c3ccccc3)[C@]3(O)C[C@H](OC(=O)[C@H](O)[C@@H](NC(=O)c4ccccc4)c4ccccc4)C(C)=C1C3(C)C)[C@]1(OC(C)=O)CO[C@@H]1C[C@@H]2O [paclitaxel] | – | – | – | angiogenesis was inhibited | – | 3 | – |

From US20110150821A1, “METHODS AND CROSSLINKED POLYMER COMPOSITIONS FOR CARTILAGE REPAIR” (ANGIOTECH PHARMACEUTICALS (US), INC., priority 2004, published 2011)
